From patent US20110015067A1, “Herbicidal Compositions Comprising Pyroxasulfone” (BASF SE, priority 2008, published 2011)

How the values were obtained:
Format in all cases: in vivo
[1] = test system: MERAN (Mercurialis annua); assay: post-emergence greenhouse test; settings: 7.5 g ai/ha
Description: (§1) For the post-emergence treatment, the test plants were first grown to a height of 3 to 20 cm, depending on the plant habit, and only then treated. Here, the herbicidal compositions were suspended or emulsified in water as distribution medium and sprayed using finely distributing nozzles.
(§2) The respective herbicides A and/or safener were formulated as 10% by weight strength suspension concentrate and introduced to the spray liquor with the amount of solvent system used for applying the active compound. Herbicide B and/or safener were used as commercially available formulations and introduced to the spray liquor with the amount of solvent system used for applying the active compound. In the examples, the solvent used was water.
(§3) The test period extended over 20 days. During this time, the plants were tended, and their response to the treatments with active compound was evaluated.
(§4) In the following experiments, the herbicidal activity for the individual herbicide compounds (solo application) and of the mixture was assessed 8 days after treatment (8 DAT) and/or 20 days after treatment (20 DAT).
(§5) The evaluation for the damage caused by the chemical compositions was carried out using a scale from 0 to 100%, compared to the untreated control plants. Here, 0 means no damage and 100 means complete destruction of the plants.

[2] = test system: LOLMU (Lolium multiflorum); assay: post-emergence greenhouse test; settings: 3.75 g ai/ha
Description: as §1, §2, §3, §4, §5

[3] = test system: AMBEL (Ambrosia artemisifolia); assay: post-emergence greenhouse test; settings: 3.75 g ai/ha
Description: as §1, §2, §3, §4, §5

[4] = test system: CHEAL (Chenopodium album); assay: post-emergence greenhouse test; settings: 15 g ai/ha
Description: as §1, §2, §3, §4, §5

[5] = test system: AMARE (Amaranthus retroflexus); assay: pre-emergence greenhouse test; settings: for observed activity in % destruction: pre-emergence
Description: (§6) For the pre-emergence treatment, directly after sowing the active compounds, which had been suspended or emulsified in water, were applied by means of finely distributed nozzles. The containers were irrigated gently to promote germination and growth and subsequently covered with transparent plastic hoods until plant had rooted. This cover caused uniform germination of the tests plants, unless this was adversely affected by active compounds.
as §2, §3, §4, §5

[6] = test system: COMBE (Commelina benghalensis); assay: pre-emergence greenhouse test; settings: for observed activity in % destruction: pre-emergence
Description: as §6, §2, §3, §4, §5

[7] = test system: CCHEC (Cenchrus echinatus); assay: pre-emergence greenhouse test
Description: as §6, §2, §3, §4, §5

[8] = test system: ALOMY (Alopecurus myosuroides); assay: pre-emergence greenhouse test; settings: for observed activity in % destruction: pre-emergence
Description: as §6, §2, §3, §4, §5

[9] = test system: PANMI (Panicum milliaceum); assay: pre-emergence greenhouse test
Description: as §6, §2, §3, §4, §5

PHBPU (Ipomoea purpurea) = assay: pre-emergence greenhouse test; settings: PHBPU pre-emergence 15 g ai/ha
Description: as §6, §2, §3, §4, §5

SOLNI (Solanum nigrum) = assay: pre-emergence greenhouse test
Description: as §6, §2, §3, §4, §5

[10] = test system: BRAPL (Brachiaria plantaginea); assay: pre-emergence greenhouse test; settings: pre-emergence, 15 g ai/ha
Description: as §6, §2, §3, §4, §5

[11] = test system: PANDI (Panicum dichotomiflorum); assay: pre-emergence greenhouse test; settings: pre-emergence
Description: as §6, §2, §3, §4, §5

[12] = test system: AMBEL (Ambrosia artemisifolia); assay: pre-emergence greenhouse test
Description: as §6, §2, §3, §4, §5

SETVI (Setaria viridis) = assay: pre-emergence greenhouse test; settings: for observed activity in % destruction: pre-emergence
Description: as §6, §2, §3, §4, §5

ERBVI = assay: pre-emergence greenhouse test
Description: as §6, §2, §3, §4, §5

[13] = test system: ECHCG (Echinochloa crus-galli); assay: pre-emergence greenhouse test; settings: for observed activity in % destruction: pre-emergence
Description: as §6, §2, §3, §4, §5

CC(C)C1(C)N=C(c2nc3ccccc3cc2C(=O)O)NC1=O (centres unmarked) [imazaquin]
observed activity in % destruction ([1]; 8 DAT): 20%
observed activity in % destruction ([1]; 20 DAT): 0%
observed activity in % destruction ([2]; 8 DAT): 0%
observed activity in % destruction ([2]; 20 DAT): 0%
observed activity in % destruction ([3]; 8 DAT): 20%
observed activity in % destruction ([3]; 20 DAT): 20%
observed activity in % destruction ([4]; 8 DAT): 20%
observed activity in % destruction ([4]; 20 DAT): 10%
observed % destruction 20 DAT ([5]; AMARE pre-emergence 3.75 g ai/ha): 50%
observed % destruction 20 DAT ([5]; AMARE pre-emergence 15 g ai/ha): 70%
observed activity in % destruction ([5]; 3.75 g ai/ha, 8 DAT): 40%
observed activity in % destruction ([5]; 3.75 g ai/ha, 20 DAT): 50%
observed activity in % destruction ([5]; 7.5 g ai/ha, 8 DAT): 50%
observed activity in % destruction ([5]; 7.5 g ai/ha, 20 DAT): 60%
observed % destruction 20 DAT ([6]; COMBE pre-emergence 3.75 g ai/ha): 35%
observed % destruction 20 DAT ([6]; COMBE pre-emergence 7.5 g ai/ha): 45%
observed activity in % destruction ([6]; 3.75 g ai/ha, 8 DAT): 20%
observed activity in % destruction ([6]; 3.75 g ai/ha, 20 DAT): 35%
observed activity in % destruction ([6]; 7.5 g ai/ha, 8 DAT): 40%
observed activity in % destruction ([6]; 7.5 g ai/ha, 20 DAT): 45%
observed activity in % destruction ([6]; 15 g ai/ha, 8 DAT): 50%
observed activity in % destruction ([6]; 15 g ai/ha, 20 DAT): 70%
observed % destruction 20 DAT ([7]; CCHEC pre-emergence 3.75 g ai/ha): 20%
observed % destruction 20 DAT ([7]; CCHEC pre-emergence 7.5 g ai/ha): 20%
observed % destruction 20 DAT ([7]; CCHEC pre-emergence 15 g ai/ha): 35%
observed % destruction 20 DAT ([8]; ALOMY pre-emergence 15 g ai/ha): 75%
observed activity in % destruction ([8]; 3.75 g ai/ha, 8 DAT): 0%
observed activity in % destruction ([8]; 3.75 g ai/ha, 20 DAT): 30%
observed activity in % destruction ([8]; 15 g ai/ha, 8 DAT): 30%
observed activity in % destruction ([8]; 15 g ai/ha, 20 DAT): 75%
observed % destruction 20 DAT ([9]; PANMI pre-emergence 3.75 g ai/ha): 30%
observed % destruction 20 DAT ([9]; PANMI pre-emergence 7.5 g ai/ha): 40%
observed % destruction 20 DAT ([9]; PANMI pre-emergence 15 g ai/ha): 45%
observed % destruction 20 DAT (PHBPU (Ipomoea purpurea)): 40%
observed % destruction 20 DAT (SOLNI (Solanum nigrum); SOLNI pre-emergence 3.75 g ai/ha): 40%
observed % destruction 20 DAT (SOLNI (Solanum nigrum); SOLNI pre-emergence 7.5 g ai/ha): 70%
observed % destruction 20 DAT (SOLNI (Solanum nigrum); SOLNI pre-emergence 15 g ai/ha): 85%
observed activity in % destruction ([10]; 8 DAT): 20%
observed activity in % destruction ([10]; 20 DAT): 60%
observed activity in % destruction ([11]; 3.75 g ai/ha, 8 DAT): 0%
observed activity in % destruction ([11]; 3.75 g ai/ha, 20 DAT): 45%
observed activity in % destruction ([11]; 7.5 g ai/ha, 8 DAT): 20%
observed activity in % destruction ([11]; 7.5 g ai/ha, 20 DAT): 75%
observed activity in % destruction ([11]; 15 g ai/ha, 8 DAT): 40%
observed activity in % destruction ([11]; 15 g ai/ha, 20 DAT): 80%
observed % destruction 20 DAT ([12]; AMBEL pre-emergence 3.75 g ai/ha): 50%
observed % destruction 20 DAT ([12]; AMBEL pre-emergence 7.5 g ai/ha): 60%
observed % destruction 20 DAT ([12]; AMBEL pre-emergence 15 g ai/ha): 80%
observed % destruction 20 DAT (SETVI (Setaria viridis); SETVI pre-emergence 15 g ai/ha): 75%
observed activity in % destruction (SETVI (Setaria viridis); 3.75 g ai/ha, 8 DAT): 30%
observed activity in % destruction (SETVI (Setaria viridis); 3.75 g ai/ha, 20 DAT): 30%
observed activity in % destruction (SETVI (Setaria viridis); 15 g ai/ha, 8 DAT): 65%
observed activity in % destruction (SETVI (Setaria viridis); 15 g ai/ha, 20 DAT): 75%
observed % destruction 20 DAT (ERBVI; ERBVI pre-emergence 3.75 g ai/ha): 0%
observed % destruction 20 DAT (ERBVI; ERBVI pre-emergence 7.5 g ai/ha): 20%
observed % destruction 20 DAT ([13]; ECHCG pre-emergence 3.75 g ai/ha): 0%
observed % destruction 20 DAT ([13]; ECHCG pre-emergence 7.5 g ai/ha): 0%
observed % destruction 20 DAT ([13]; ECHCG pre-emergence 15 g ai/ha): 20%
observed activity in % destruction ([13]; 7.5 g ai/ha, 8 DAT): 0%
observed activity in % destruction ([13]; 7.5 g ai/ha, 20 DAT): 0%
observed activity in % destruction ([13]; 15 g ai/ha, 8 DAT): 20%
observed activity in % destruction ([13]; 15 g ai/ha, 20 DAT): 20%
